# In patent US20240376108A1, “SALT AND CRYSTAL FORM OF PYRAZOLE-CONTAINING POLYCYCLIC DERIVATIVE, AND PREPARATION METHOD THEREFOR AND USE THEREOF” (Shanghai Hansoh Biomedical Co., Ltd., priority 2021, published 2024):
# Legend:
# [1] = Metabolic stability in liver microsome (rat); type: in vitro ADME; conditions: rat liver microsome, 60 min
# Method: (§1) Test Example 5. Assay of Metabolic Stability in Liver Microsome
# (§2) 1. Experimental objective: The objective of the experiment is to determine the stability of the compounds of the Examples in liver microsome of mouse, rat, dog and human.
# (§3) 2.1 Formulation of the working solution of the compound: Formulation of the working solution of the compound: The stock solution of the compound was added to phosphate buffer, and the final concentration was 20 μM.
# (§4) 2.2 Formulation of the working solution of liver microsome: Liver microsome was diluted with 100 mM phosphate buffer to obtain a final concentration of 0.625 mg/mL.
# (§5) 2.3 Formulation of NADPH and UDPGA: NADPH (reduced nicotinamide adenine dinucleotide phosphate) and UDPGA (uridine diphosphate glucuronic acid) were weighed respectively, followed by addition of 100 mM phosphate buffer. The final concentrations were 20 mM.
# (§6) 2.4 Formulation of the channel-forming reagent: 1 mg of Alamethicin was weighed, to which 200 μL of DMSO was added to obtain a 5 mg/mL solution. The solution was diluted with phosphate buffer to obtain a final concentration of 50 μg/mL.
# (§7) 2.5 Formulation of the reaction stop solution: Stop solution: Cold acetonitrile containing 100 ng/mL labetalol hydrochloride and 400 ng/mL tolbutamide as internal standards.
# (§8) 2.6 Incubation procedure: 400 μL of the prepared liver microsome, 25 μL of the working solution of the compound and 25 μL of Alamethicin were added to a 96-well plate successively, which was then pre-incubated at 37° C. for 10 minutes. 50 μL of the prepared NADPH/UDPGA was added to initiate the reaction, and the plate was incubated at 37° C. The total volume of the reaction system was 500 μL. The final contents of the components were as follows:
# (§9) 2.7.1 Chromatographic conditions: • Instrument: Shimadzu LC-30 AD; Chromatographic column: XBridge® C18 (50*4.6 mm, particle size: 5 μm); • Mobile phase: A: 0.1% formic acid solution, B: methanol • Eluent gradient: 0.2˜1.6 min 5% A to 95% A, 3.0˜3.1 min 95% A to 5% A • Running time: 4.0 min.
# (§10) 2.7.2 Mass spectrometry conditions: • Instrument: API5500 liquid chromatography-mass spectrometer, AB Sciex; • Ion source: Electrospray ionization source (ESI); Drying gas: N2, temperature: 500° C.; • Electrospray voltage: 5000V; Detection method: Positive ion detection; • Scanning mode: Mode of reaction monitoring (MRM).
# [2] = Metabolic stability in liver microsome (human); type: in vitro ADME
# Method: as §1, §2, §3, §4, §5, §6, §7, §8, §9, §10
# [3] = Metabolic stability in liver microsome (mouse); type: in vitro ADME
# Method: as §1, §2, §3, §4, §5, §6, §7, §8, §9, §10
# [4] = Hygroscopicity experiment (DVS); type: physicochemical; conditions: 25° C.
# Source text: 7.1 Hygroscopicity experiment of crystal forms of different salts of compound 2-(2-cyano-5-oxo-8-(trifluoromethyl)pyrazolo[1,5-a]pyrido[3,2-e]pyrimidin-4(5H)-yl)-N-(5-fluoropyridin-2-yl)acetamide
# 7.1.1 Experimental objective: To investigate the hygroscopicity of crystal forms of different salts of compound 2-(2-cyano-5-oxo-8-(trifluoromethyl)pyrazolo[1,5-a]pyrido[3,2-e]pyrimidin-4(5H)-yl)-N-(5-fluoropyridin-2-yl)acetamide at different relative humidity, so as to provide a basis for storage.
# 7.1.2 Experimental protocol: Crystal forms of different salts of the compound were placed in saturated water vapor with different relative humidity to achieve dynamic equilibrium between the compound and water vapor, and the percentage of hygroscopic weight gain of the compound after equilibrium was calculated.
# [5] = Pharmacokinetic assay of the salt forms in rats (10 mg/kg); type: in vivo; conditions: SD rats
# Method: 2.3 Pharmacokinetic assay of the methanesulfonate in rats
# 2.3.1. Study objective: SD rats were used as test animals. The pharmacokinetic behavior of various salt forms of 2-(2-cyano-5-oxo-8-(trifluoromethyl)pyrazolo[1,5-a]pyrido[3,2-e]pyrimidin-4(5H)-yl)-N-(5-fluoropyridin-2-yl)acetamide was studied in rat body (plasma) by orally administration at a dose of 10 mg/kg.
# 2.3.2.4 Administration: After an overnight fast, male SD rats (3 rats per group) were administered p.o. with the test compound at a dose of 10 mg/kg and a volume of 10 mL/kg.
# 2.3.2.5 Sample collection: 0.2 mL of blood was taken from the jugular vein of the rat before administration and at 0, 0.5, 1, 2, 4, 6, 8 and 24 hours after administration. The samples were stored in EDTA-K2 tubes, and centrifuged for 6 minutes at 4° C., 6000 rpm to separate the plasma. The plasma samples were stored at −80° C.
# 1) 160 μL of acetonitrile was added to 40 μL of the plasma sample for precipitation, and then the mixture was centrifuged at 3500×g for 5 to 20 minutes.
# 2) After the above process, 100 μL of the supernatant was taken to analyze the concentration of the test compound by LC/MS/MS.
# 2.3.2.7 Liquid chromatography analysis • Liquid chromatography condition: Shimadzu LC-20AD pump • Mass spectrometry condition: AB Sciex API 4000 mass spectrometer • Chromatographic column: phenomenex Gemiu 5 um C18 50×4.6 mm • Mobile phase: Eluent A was 0.1% formic acid in water, and Eluent B was acetonitrile • Flow rate: 0.8 mL/min • Elution time: 0-4.0 minutes, the eluent is as follows:
# The main parameters of pharmacokinetics were calculated by WinNonlin 8.2.
# [6] = Solid stability experiment (high temperature, high humidity, high temperature and high humidity); type: physicochemical
# Method: 4.1.1 Experimental objective: To investigate the physical and chemical stability of the crystal form of the compound under the conditions of high temperature, high humidity, as well as high temperature and high humidity, so as to provide a basis for crystal form screening and storage of the crystal form of the compound.
# The content of the salt was determined by HPLC using the external standard method, and the change of relevant substances was calculated by using the chromatographic peak area normalization method.
# [7] = Cycle 1, target relative humidity 0.0%
# [8] = Cycle 1, target relative humidity 10.0%
# [9] = Cycle 1, target relative humidity 20.0%
# [10] = Cycle 1, target relative humidity 30.0%
# [11] = Cycle 1, target relative humidity 40.0%
# [12] = Cycle 1, target relative humidity 50.0%
# [13] = Cycle 1, target relative humidity 60.0%
# [14] = Cycle 1, target relative humidity 70.0%
# [15] = Cycle 1, target relative humidity 80.0%
# [16] = Cycle 1, target relative humidity 90.0%
# [17] = Cycle 1, target relative humidity 95.0%
# [18] = Cycle 2, target relative humidity 0.0%
# [19] = Cycle 2, target relative humidity 10.0%
# [20] = Cycle 2, target relative humidity 20.0%
# [21] = Cycle 2, target relative humidity 30.0%
# [22] = Cycle 2, target relative humidity 40.0%
# [23] = Cycle 2, target relative humidity 50.0%
# [24] = Cycle 2, target relative humidity 60.0%
# [25] = Cycle 2, target relative humidity 70.0%
# [26] = Cycle 2, target relative humidity 80.0%
# [27] = Cycle 2, target relative humidity 90.0%
# [28] = Cycle 2, target relative humidity 95.0%
# [29] = High humidity (92.5% RH), Day 7
# [30] = High humidity (92.5% RH), Day 14
# [31] = High temperature (60° C.), Day 7
# [32] = High temperature (60° C.), Day 14
# [33] = High temperature and high humidity (50° C.&75% RH), Day 7
# [34] = High temperature and high humidity (50° C.&75% RH), Day 14
smiles,measurement,setting,value
"CCc1cc2n(CC(=O)Nc3ccc(F)cn3)c(=O)c3ccc(C(F)(F)F)nc3n2n1 [Example 12, 2-(2-Ethyl-5-oxo-8-(trifluoromethyl)pyrazolo[1,5-a]pyrido[3,2-e]pyrimidin-4(5H)-yl)-N-(5-fluoropyridin-2-yl)acetamide]","Rat Remaining (%, 60 min)",[1],104.4%
same,Human t1/2,"[2]; human liver microsome 0.5 mg/mL, compound 1 μM, NADPH/UDPGA",∞
same,"Human Remaining (%, 60 min)","[2]; human liver microsome, 60 min",113.9%
same,"Mouse Remaining (%, 60 min)",[3],81.3%
"N#Cc1cc2n(CC(=O)Nc3ccc(F)cn3)c(=O)c3ccc(C(F)(F)F)nc3n2n1.O=S(=O)(O)O [Sulfate (crystal form B), 2-(2-cyano-5-oxo-8-(trifluoromethyl)pyrazolo[1,5-a]pyrido[3,2-e]pyrimidin-4(5H)-yl)-N-(5-fluoropyridin-2-yl)acetamide sulfate]","% percentage of mass change, Desorption",[4]; [7],−0.027%
same,"% percentage of mass change, Sorption",[4]; [7],−0.002%
same,"% percentage of mass change, Desorption",[4]; [8],0.087%
same,"% percentage of mass change, Sorption",[4]; [8],0.099%
same,"% percentage of mass change, Desorption",[4]; [9],0.168%
same,"% percentage of mass change, Sorption",[4]; [9],0.171%
same,"% percentage of mass change, Desorption",[4]; [10],0.250%
same,"% percentage of mass change, Sorption",[4]; [10],0.236%
same,"% percentage of mass change, Desorption",[4]; [11],0.341%
same,"% percentage of mass change, Sorption",[4]; [11],0.303%
same,"% percentage of mass change, Desorption",[4]; [12],0.456%
same,"% percentage of mass change, Sorption",[4]; [12],0.376%
same,"% percentage of mass change, Desorption",[4]; [13],0.540%
same,"% percentage of mass change, Sorption",[4]; [13],0.455%
same,"% percentage of mass change, Desorption",[4]; [14],0.652%
same,"% percentage of mass change, Sorption",[4]; [14],0.552%
same,"% percentage of mass change, Desorption",[4]; [15],0.777%
same,"% percentage of mass change, Sorption",[4]; [15],0.691%
same,"% percentage of mass change, Desorption",[4]; [16],1.118%
same,"% percentage of mass change, Sorption",[4]; [16],1.010%
same,"% percentage of mass change, Desorption",[4]; [17],1.608%
same,"% percentage of mass change, Sorption",[4]; [17],1.608%
same,"% percentage of mass change, Desorption",[4]; [18],−0.051%
same,"% percentage of mass change, Sorption",[4]; [18],−0.027%
same,"% percentage of mass change, Desorption",[4]; [19],0.065%
same,"% percentage of mass change, Sorption",[4]; [19],0.070%
same,"% percentage of mass change, Desorption",[4]; [20],0.149%
same,"% percentage of mass change, Sorption",[4]; [20],0.147%
same,"% percentage of mass change, Desorption",[4]; [21],0.230%
same,"% percentage of mass change, Sorption",[4]; [21],0.218%
same,"% percentage of mass change, Desorption",[4]; [22],0.322%
same,"% percentage of mass change, Sorption",[4]; [22],0.287%
same,"% percentage of mass change, Desorption",[4]; [23],0.422%
same,"% percentage of mass change, Sorption",[4]; [23],0.369%
same,"% percentage of mass change, Desorption",[4]; [24],0.529%
same,"% percentage of mass change, Sorption",[4]; [24],0.450%
same,"% percentage of mass change, Desorption",[4]; [25],0.632%
same,"% percentage of mass change, Sorption",[4]; [25],0.545%
same,"% percentage of mass change, Desorption",[4]; [26],0.761%
same,"% percentage of mass change, Sorption",[4]; [26],0.682%
same,"% percentage of mass change, Desorption",[4]; [27],1.087%
same,"% percentage of mass change, Sorption",[4]; [27],1.007%
same,"% percentage of mass change, Desorption",[4]; [28],1.618%
same,"% percentage of mass change, Sorption",[4]; [28],1.618%
same,exposure AUC and maximum plasma concentration Cmax compared with the free base,[5]; 10 mg/kg,superior
same,AUC(0-t),"[5]; male, rat, po, p.o. 10 mg/kg, plasma, vehicle 0.5% HPMC, read-out: Area under curve AUC0-t",21600 ng·h/mL
same,MRT inf,"[5]; male, rat, po, p.o. 10 mg/kg, plasma, vehicle 0.5% HPMC, read-out: Average residence time MRT0-∞",4.6 h
same,half-life,"[5]; male, rat, po, p.o. 10 mg/kg, plasma, vehicle 0.5% HPMC, read-out: Half life t1/2 (converted)",168 min
same,Tmax,"[5]; male, rat, po, p.o. 10 mg/kg, plasma, vehicle 0.5% HPMC, read-out: Peak time tmax",2 h
same,Cmax,"[5]; male, rat, po, p.o. 10 mg/kg, plasma, vehicle 0.5% HPMC, read-out: Plasma concentration Cmax",3080 ng/mL
same,solid stability under high humidity,"[6]; 92.5% RH, 7 and 14 days",stable
same,% increase of total impurities,[6]; [29],<0.1%
same,% maximum increase of single impurity,[6]; [29],<0.1%
same,% increase of total impurities,[6]; [30],<0.1%
same,% maximum increase of single impurity,[6]; [30],<0.1%
same,% increase of total impurities,[6]; [31],>0.2%
same,% maximum increase of single impurity,[6]; [31],<0.1%
same,% increase of total impurities,[6]; [32],>0.4%
same,% maximum increase of single impurity,[6]; [32],>0.1%
same,% increase of total impurities,[6]; [33],>0.2%
same,% maximum increase of single impurity,[6]; [33],>0.1%
same,% increase of total impurities,[6]; [34],>0.2%
same,% maximum increase of single impurity,[6]; [34],>0.1%
